Results published in ChEMBL document CHEMBL3784917, “Recent Progress in Histone Demethylase Inhibitors” (J Med Chem, 2016).

Assays:
[1] = target: T1, Lysine-specific demethylase 4B (Homo sapiens, UniProt O94953); experiment: Inhibition of human N-terminal GST-tagged KDM4B (1 to 500 residues) expressed in baculovirus infected sf9 cells using biotinylated histone H3 as substrate preincubated for 10 mins followed by substrate addition measured after 10 mins by AlphaLisa assay
T1 sequence (O94953 whole entry): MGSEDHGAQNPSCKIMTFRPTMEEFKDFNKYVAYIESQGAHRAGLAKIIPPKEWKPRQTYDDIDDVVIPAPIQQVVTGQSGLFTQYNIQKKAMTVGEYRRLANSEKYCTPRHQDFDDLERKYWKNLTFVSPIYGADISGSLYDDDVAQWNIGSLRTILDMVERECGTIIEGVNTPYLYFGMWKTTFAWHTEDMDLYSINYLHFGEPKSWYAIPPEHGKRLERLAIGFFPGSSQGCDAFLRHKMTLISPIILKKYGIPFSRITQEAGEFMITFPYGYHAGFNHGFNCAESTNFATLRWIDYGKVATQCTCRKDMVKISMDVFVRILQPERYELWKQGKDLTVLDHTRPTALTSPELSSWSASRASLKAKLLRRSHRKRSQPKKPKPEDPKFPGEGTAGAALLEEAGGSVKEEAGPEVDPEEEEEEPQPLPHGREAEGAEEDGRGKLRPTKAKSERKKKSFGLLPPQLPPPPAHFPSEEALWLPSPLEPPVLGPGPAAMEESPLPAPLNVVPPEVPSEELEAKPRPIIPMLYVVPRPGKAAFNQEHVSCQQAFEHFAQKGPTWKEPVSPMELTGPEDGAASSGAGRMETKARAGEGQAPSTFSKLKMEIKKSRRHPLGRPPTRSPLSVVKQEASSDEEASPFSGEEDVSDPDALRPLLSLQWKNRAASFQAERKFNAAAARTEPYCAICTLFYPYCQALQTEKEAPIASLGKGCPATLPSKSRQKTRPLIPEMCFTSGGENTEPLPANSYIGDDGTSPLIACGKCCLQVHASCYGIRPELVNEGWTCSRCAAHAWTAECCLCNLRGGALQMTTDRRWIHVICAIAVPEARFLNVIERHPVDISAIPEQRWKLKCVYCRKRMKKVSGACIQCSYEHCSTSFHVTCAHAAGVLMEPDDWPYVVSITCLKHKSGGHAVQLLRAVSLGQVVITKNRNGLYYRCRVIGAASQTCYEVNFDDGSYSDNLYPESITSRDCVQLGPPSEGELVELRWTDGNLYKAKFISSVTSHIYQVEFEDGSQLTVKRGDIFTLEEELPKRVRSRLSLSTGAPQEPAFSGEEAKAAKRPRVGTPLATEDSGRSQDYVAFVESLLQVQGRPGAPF

[2] = target: Lysine-specific demethylase 5C (Homo sapiens, UniProt P41229); experiment: biochemical
Chain of Lysine-specific demethylase 5C (P41229 whole entry): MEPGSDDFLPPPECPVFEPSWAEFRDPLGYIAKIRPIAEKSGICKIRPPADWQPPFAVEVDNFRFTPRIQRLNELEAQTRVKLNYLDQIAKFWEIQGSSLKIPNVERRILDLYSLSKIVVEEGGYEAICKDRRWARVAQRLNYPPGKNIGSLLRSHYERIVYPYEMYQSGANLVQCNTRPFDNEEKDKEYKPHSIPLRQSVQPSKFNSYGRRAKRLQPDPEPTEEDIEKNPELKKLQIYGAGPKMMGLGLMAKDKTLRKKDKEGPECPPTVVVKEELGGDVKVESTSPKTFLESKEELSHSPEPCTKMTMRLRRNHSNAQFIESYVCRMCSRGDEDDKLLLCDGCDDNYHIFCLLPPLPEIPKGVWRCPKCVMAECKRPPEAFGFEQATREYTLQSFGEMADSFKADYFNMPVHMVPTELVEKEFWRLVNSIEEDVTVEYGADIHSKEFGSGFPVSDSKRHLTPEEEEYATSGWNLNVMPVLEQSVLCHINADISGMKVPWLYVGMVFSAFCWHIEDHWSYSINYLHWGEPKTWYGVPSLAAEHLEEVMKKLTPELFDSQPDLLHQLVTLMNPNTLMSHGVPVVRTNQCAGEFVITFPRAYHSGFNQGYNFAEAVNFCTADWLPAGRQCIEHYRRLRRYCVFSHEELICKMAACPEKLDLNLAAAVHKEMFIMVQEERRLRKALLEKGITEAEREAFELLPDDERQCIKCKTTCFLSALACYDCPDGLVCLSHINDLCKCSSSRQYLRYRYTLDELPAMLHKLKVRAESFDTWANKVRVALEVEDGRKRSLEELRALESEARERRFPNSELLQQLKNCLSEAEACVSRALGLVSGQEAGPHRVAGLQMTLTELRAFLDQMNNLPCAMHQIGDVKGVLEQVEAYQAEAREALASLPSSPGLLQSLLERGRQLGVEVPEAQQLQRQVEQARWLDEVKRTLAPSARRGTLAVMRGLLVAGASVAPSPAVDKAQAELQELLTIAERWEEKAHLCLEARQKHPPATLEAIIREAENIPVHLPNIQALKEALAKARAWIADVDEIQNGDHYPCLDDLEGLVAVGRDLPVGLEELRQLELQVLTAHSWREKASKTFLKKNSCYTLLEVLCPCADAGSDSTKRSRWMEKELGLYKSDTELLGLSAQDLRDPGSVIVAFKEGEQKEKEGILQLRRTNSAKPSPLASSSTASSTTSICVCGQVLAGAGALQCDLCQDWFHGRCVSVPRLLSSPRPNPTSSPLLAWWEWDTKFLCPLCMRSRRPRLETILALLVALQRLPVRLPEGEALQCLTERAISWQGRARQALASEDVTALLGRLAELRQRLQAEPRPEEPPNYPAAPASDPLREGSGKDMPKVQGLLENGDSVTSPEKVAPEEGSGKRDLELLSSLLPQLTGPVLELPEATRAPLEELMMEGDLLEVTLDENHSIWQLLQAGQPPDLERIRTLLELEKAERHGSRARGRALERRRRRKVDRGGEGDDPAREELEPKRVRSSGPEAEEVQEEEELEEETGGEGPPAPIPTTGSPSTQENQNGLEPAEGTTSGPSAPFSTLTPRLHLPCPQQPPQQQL

[3] = target: T2, Lysine-specific demethylase 4C (Homo sapiens, UniProt Q9H3R0)
T2 sequence (Q9H3R0 whole entry): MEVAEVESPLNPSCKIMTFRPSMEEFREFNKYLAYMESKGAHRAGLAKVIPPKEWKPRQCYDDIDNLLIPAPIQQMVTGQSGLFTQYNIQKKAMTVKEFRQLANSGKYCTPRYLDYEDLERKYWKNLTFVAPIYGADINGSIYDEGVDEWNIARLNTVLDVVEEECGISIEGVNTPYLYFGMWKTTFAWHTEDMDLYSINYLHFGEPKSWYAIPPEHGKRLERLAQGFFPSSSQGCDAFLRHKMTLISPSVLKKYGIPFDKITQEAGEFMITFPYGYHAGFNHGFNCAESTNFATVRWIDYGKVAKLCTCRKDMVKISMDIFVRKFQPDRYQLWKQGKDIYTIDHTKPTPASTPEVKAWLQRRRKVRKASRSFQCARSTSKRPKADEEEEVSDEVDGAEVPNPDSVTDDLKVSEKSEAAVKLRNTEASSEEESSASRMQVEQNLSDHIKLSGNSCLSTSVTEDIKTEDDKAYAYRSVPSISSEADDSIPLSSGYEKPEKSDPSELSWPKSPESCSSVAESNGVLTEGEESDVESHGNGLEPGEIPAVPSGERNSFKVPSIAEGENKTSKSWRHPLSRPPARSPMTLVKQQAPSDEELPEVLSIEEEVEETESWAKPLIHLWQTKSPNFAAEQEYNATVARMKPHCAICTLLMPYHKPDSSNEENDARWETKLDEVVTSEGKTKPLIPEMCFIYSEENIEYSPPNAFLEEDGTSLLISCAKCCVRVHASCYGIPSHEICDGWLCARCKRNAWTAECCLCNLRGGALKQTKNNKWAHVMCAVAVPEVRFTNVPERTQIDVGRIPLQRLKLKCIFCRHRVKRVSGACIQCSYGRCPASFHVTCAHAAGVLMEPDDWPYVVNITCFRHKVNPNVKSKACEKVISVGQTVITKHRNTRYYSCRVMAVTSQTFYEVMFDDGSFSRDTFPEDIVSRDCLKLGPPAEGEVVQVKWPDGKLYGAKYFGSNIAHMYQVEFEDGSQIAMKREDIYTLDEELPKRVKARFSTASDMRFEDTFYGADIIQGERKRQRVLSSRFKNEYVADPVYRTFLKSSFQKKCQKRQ

[4] = target: Lysine-specific demethylase 3B (Homo sapiens, UniProt Q7LBC6); experiment: biochemical
[5] = target: Lysine-specific demethylase 6A (Homo sapiens, UniProt O15550)
[6] = target: Lysine-specific demethylase 5B (Homo sapiens, UniProt Q9UGL1)
Chain of Lysine-specific demethylase 5B (Q9UGL1 whole entry): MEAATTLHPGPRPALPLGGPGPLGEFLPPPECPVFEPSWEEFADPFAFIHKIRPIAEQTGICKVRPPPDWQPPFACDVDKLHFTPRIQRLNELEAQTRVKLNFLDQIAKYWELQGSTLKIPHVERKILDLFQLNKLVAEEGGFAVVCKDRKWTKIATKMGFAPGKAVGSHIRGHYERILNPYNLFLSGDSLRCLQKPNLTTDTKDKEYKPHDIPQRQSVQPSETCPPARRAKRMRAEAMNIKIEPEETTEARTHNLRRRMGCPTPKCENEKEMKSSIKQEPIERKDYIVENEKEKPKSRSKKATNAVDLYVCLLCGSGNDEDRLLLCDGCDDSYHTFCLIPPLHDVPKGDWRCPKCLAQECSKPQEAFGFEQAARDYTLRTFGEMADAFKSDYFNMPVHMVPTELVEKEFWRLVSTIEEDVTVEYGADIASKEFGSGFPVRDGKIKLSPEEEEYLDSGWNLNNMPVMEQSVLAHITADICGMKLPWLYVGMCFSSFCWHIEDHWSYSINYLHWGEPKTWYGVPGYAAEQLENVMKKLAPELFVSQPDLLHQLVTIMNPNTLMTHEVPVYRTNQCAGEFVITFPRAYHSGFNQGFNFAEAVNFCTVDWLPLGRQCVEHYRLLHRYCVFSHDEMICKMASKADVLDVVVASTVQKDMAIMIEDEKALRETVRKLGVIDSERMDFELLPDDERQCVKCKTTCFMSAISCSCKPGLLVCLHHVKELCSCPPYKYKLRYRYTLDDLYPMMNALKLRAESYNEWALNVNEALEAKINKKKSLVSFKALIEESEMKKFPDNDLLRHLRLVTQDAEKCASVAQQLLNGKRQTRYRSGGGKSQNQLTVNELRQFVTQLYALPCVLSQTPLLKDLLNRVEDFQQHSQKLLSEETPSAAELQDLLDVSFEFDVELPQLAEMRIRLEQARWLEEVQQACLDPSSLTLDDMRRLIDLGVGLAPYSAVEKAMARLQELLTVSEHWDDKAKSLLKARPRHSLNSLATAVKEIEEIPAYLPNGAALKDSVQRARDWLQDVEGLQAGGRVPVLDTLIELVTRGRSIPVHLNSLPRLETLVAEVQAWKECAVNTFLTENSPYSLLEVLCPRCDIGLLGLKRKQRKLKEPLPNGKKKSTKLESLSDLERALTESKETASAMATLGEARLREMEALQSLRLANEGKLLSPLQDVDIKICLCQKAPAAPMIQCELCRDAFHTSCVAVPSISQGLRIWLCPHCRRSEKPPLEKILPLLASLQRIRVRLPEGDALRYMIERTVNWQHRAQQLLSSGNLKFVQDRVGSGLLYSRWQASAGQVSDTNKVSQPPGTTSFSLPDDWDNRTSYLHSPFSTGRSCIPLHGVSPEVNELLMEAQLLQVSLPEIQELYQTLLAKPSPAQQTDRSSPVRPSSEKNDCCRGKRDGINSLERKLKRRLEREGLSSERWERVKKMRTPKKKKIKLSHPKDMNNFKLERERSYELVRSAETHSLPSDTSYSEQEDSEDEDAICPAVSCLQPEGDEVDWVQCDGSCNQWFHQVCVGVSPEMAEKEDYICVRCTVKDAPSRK

[7] = target: Lysine-specific demethylase 6B (Homo sapiens, UniProt O15054); experiment: biochemical
Chain of Lysine-specific demethylase 6B (O15054 whole entry): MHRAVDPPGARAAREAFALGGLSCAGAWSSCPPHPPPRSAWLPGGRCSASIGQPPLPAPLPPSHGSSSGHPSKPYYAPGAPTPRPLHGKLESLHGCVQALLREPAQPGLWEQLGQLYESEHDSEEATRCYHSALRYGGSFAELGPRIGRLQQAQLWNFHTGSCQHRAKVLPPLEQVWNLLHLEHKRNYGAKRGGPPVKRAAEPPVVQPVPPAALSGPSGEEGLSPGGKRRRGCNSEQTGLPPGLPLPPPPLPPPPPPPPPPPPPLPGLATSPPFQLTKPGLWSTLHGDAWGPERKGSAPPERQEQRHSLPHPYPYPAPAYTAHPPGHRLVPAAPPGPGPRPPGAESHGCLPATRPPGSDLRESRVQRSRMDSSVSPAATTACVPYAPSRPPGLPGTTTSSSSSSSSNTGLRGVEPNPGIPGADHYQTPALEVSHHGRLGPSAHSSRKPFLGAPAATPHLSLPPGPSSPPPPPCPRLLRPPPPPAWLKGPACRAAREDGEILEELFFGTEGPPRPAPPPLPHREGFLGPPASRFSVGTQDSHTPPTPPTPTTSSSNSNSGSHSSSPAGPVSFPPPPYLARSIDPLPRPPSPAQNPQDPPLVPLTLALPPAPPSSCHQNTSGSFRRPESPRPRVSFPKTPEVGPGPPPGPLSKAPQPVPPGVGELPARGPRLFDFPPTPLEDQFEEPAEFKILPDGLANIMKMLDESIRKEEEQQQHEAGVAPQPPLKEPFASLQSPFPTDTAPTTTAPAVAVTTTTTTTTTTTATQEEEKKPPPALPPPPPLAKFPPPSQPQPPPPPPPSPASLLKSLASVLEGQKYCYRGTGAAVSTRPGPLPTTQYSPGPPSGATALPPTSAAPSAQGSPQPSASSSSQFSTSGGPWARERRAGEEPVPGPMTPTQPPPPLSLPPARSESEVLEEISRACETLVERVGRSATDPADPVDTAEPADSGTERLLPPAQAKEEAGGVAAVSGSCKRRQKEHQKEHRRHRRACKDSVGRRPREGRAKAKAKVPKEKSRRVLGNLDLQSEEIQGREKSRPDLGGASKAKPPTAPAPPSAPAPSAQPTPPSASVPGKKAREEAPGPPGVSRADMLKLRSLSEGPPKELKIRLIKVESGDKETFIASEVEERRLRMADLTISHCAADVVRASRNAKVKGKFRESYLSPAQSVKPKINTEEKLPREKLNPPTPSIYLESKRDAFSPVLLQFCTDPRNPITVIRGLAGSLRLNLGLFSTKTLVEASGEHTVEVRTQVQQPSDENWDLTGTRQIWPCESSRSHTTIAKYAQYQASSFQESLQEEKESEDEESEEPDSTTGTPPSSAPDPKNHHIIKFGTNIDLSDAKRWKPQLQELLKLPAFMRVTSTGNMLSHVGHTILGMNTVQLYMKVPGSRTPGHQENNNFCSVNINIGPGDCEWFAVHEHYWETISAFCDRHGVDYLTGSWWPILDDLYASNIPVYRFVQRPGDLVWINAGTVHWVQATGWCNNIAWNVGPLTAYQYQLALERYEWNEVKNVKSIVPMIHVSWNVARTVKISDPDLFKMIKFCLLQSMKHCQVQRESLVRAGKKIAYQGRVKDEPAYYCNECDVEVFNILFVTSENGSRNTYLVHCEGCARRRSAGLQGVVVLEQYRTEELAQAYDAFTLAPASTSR

CCN(CCN(C)C)C(=O)CNCc1cc(C(=O)O)ccn1
IC50 [1]: < 100 nM | IC50 [2]: < 100 nM | IC50 [3]: < 100 nM | IC50 [4]: > 1000 nM | IC50 [5]: > 1000 nM | IC50 [6]: < 100 nM | IC50 [7]: > 1000 nM

CCN(CC)CCCCNCc1cc(C=O)ccn1
IC50 [1]: < 250 nM | IC50 [2]: < 250 nM | IC50 [3]: > 2500 nM | IC50 [4]: > 2500 nM | IC50 [5]: > 2500 nM | IC50 [6]: < 250 nM | IC50 [7]: > 2500 nM

CCN(CCN(C)C)C(=O)CNCc1cc(CNC(=O)C(F)(F)F)ccn1
IC50 [1]: > 2500 nM | IC50 [2]: 250 nM | IC50 [3]: > 2500 nM | IC50 [4]: > 2500 nM | IC50 [5]: > 2500 nM | IC50 [6]: 250 nM | IC50 [7]: > 2500 nM
